Measured values published in patent US6579856B2, “Inhibition of stress activated protein kinase (SAPK) pathway and sensitization of cells to cancer therapies” (priority 1997, dated 2003).
Positions count from the first letter of the chain named. In names and notes the source's numbering stands. Like-named read-outs stand apart in the source and are kept apart here.

What was measured:
Assay type in all cases: cell-based
[1] = tested on: T98G cells; experiment: PCR-stop assay of cisplatin-DNA adduct formation and repair
Text: The PCR-stop assay was used to quantitate cisplatin-DNA adduct formation and subsequent repair (Horton et al., Nucl. Acids. Res. 23:3810-3815 (1995), which is incorporated herein by reference). The assay is based on the observation that the efficiency of amplification of cisplatin-treated DNA is inversely proportional to the degree of platination. […] DNA was amplified quantitatively to produce a 2.7 kb product of the hypoxanthine phosphoribosyl transferase (HPRT) gene and a 0.15 kb nested fragment of the HPRT gene using ^32P-end labeled primers: 5′-[…]-3′(5′ primer; SEQ ID NO: 3) and 5′-[…]-3′ (3′ primer; SEQ ID NO: 4), for the 2.7 kb product; 5′-[…]-3′(5′ nested primer; SEQ ID NO: 5) and the above 3′ primer (SEQ ID NO: 4) for the 0.15 kb product. The 0.15 kb product contains undetectable levels of DNA damage under the present conditions and serves as an internal PCR control and as the basis for normalization of the amount of amplification of the 2.7 kb product. The number of lesions per 2.7 kb product was calculated as […] (cpm damaged DNA/cpm undamaged DNA).
As a control, […], which inhibits DNA repair by inhibiting ADP-ribosylation, was added with cisplatin.

[2] = tested on: SAPK (JNK); experiment: SAPK (JNK) assay in T98G cells; settings: for increase in SAPK (JNK) activity: T98G cells incubated with 250, 500 or 1000 μM for 1 hr
Protocol: T98G glioblastoma cells were maintained in Dulbecco's modified minimal medium containing 5% fetal calf serum. SAPK (JNK) assays were performed as described by Hibi et al. (supra, 1993). c-jun and dn-jun expression were quantitated using the methods and antibodies described by Grover-Bardwick et al. (Carcinogenesis 15:1667-1674 (1994), which is incorporated herein by reference).
Cisplatin, but not transplatin, forms covalent crosslinks between adjacent guanine or guanine-adenine residues. […] As a control, UV-C irradiation was performed and similarly produced a dose-dependent increase in SAPK activity.

[3] = tested on: PC3 prostate carcinoma cells; experiment: Cell viability, PC3 cells; settings: for IC50: read-out: IC-50 (cisplatin)
Protocol: (§1) Cell viability was determined using the MTS method (Promega Corp.; Madison Wis.), measuring the […] of the formazan product 1 hr after adding the MTS (Gjerset et al., Mol. Carcin. 14:275-285 (1995), which is incorporated herein by reference). Cells were seeded into 96 well plates. After 24 hr, various concentrations of cisplatin or transplatin was added and incubation was continued for 1 hr. Medium was then removed and replaced with fresh medium and cell viability was determined 5 days later. Experiments were performed in quadruplicate; cell viability is expressed as the ratio of the viable cells following treatment to viable untreated cells.
PC3 prostate carcinoma cells were genetically modified to express dn-jun or a second dominant negative c-jun, Tam-67, both of which were under control of the metallothionein promoter (Brown et al., Oncogene 9:791-799 (1994), which is incorporated herein by reference).

[4] = tested on: T98G glioblastoma cells; experiment: Cell viability (MTS method), T98G cells; settings: for IC50: 1 hr exposure, viability 5 days later, read-out: IC-50 for cisplatin
Protocol: as §1
The IC-50 for cisplatin was determined using the T98G cells that express dn-jun, control T98G cells and T98G cells stably transfected with the corresponding empty vector. […] In comparison, expression of dn-jun in T98G cells decreased the IC-50 to 21 μM, which represents a 7-fold increase in sensitivity.

[5] = tested on: AP-1; experiment: Basal AP-1 activity in dn-jun transfected T98G cells; settings: T98G cells stably expressing dn-jun
Text: (§2) T98G cells were stably transfected with a cDNA encoding the dn-jun (Smeal et al., supra, 1991; Smeal et al., supra, 1992) and clonal lines were obtained. Expression of dn-jun had no effect on basal AP-1 activity or on the enzyme activity of SAPK. In contrast, dn-jun expression inhibited phosphorylation-dependent activation of transcription.

[6] = tested on: U87 human glioblastoma cells; experiment: Cell viability, U87 cells; settings: U87 cells expressing dn-jun vs parental U87 cells
Protocol: as §1
(§3) In other experiments, U87 human glioblastoma cells and MCF-7 breast cancer cells were stably transfected with the vector expressing dn-jun and clonal lines were isolated.

[7] = tested on: phosphorylation-dependent activation of transcription; experiment: Phosphorylation-dependent activation of transcription in dn-jun transfected T98G cells; settings: T98G cells stably expressing dn-jun
Text: as §2

[8] = tested on: MCF-7 breast cancer cells; experiment: Cell viability, MCF-7 cells; settings: MCF-7 cells expressing dn-jun vs parental cells
Protocol: as §1, §3

[9] = ABZ added with cisplatin, 6 hr recovery period

Nc1ccc(-c2ccc(N)cc2N)cc1 [ABZ, 2-aminobenzidine]
DNA repair [1, 9]: no repair was observed | level of DNA damage [1, 9]: substantially increased

N.N.[Cl][Pt][Cl] [cisplatin]
increase in SAPK (JNK) activity [2]: up to 10 fold | IC50 ([3]; PC3 cells expressing dn-jun): 18 µM | IC50 ([3]; control PC3 cells): 109 µM | IC50 ([4]; T98G cells expressing dn-jun): 21 µM | IC50 ([4]; control (untransfected) T98G cells): 147 µM | DNA damage ([1]; DNA isolated immediately after 1 hr treatment with 0, 100 or 200 μM): increasing levels of DNA damage

N.N.[Cl][Pt+2][Cl] [transplatin]
increase in SAPK (JNK) activity [2]: no effect was observed

B1: dn-jun: dominant negative mutant of c-jun containing alanine-63 and alanine-73 substitutions; cannot be phosphorylated by SAPK (protein, UniProt P05412 1-331, looked up, variant S63A S73A)
Transcription factor Jun: MTAKMETTFYDDALNASFLPSESGPYGYSNPKILKQSMTLNLADPVGSLKPHLRAKNSDLLTAPDVGLLKLAAPELERLIIQSSNGHITTTPTPTQFLCPKNVTDEQEGFAEGFVRALAELHSQNTLPSVTSAAQPVNGAGMVAPAVASVAGGSGSGGFSASLHSEPPVYANLSNFNPGALSSGGGAPSYGAAGLAFPAQPQQQQQPPHHLPQQMPVQHPRLQALKEEPQTVPEMPGETPPLSPIDMESQERIKAERKRMRNRIAASKCRKRKLERIARLEEKVKTLKAQNSELASTANMLREQVAQLKQKVMNHVNSGCQLMLTQQLQTF
basal AP-1 activity [5]: no effect | increased sensitivity to cisplatin [6]: 2.5 fold | phosphorylation-dependent activation of transcription [7]: inhibited | enzyme activity of SAPK ([2]; T98G cells stably expressing dn-jun): no effect | increased sensitivity to cisplatin [8]: 3 fold | increased sensitivity to cisplatin ([3]; PC3 cells expressing dn-jun vs control cells): greater than 7 fold | increased sensitivity to cisplatin ([3]; PC3 cells expressing dn-jun vs vector control cells): greater than 9 fold

B2: c-jun: c-jun transcription factor, the SAPK substrate, with increased expression in T98G cells (protein, UniProt P05412 1-331, looked up)
Transcription factor Jun: B1 Transcription factor Jun with A63S, A73S
viability of cells to cisplatin exposure ([4]; increased expression of c-jun in T98G cells): somewhat increased
